Measurements: US20250262167A1, “COMPOUNDS, TARGETS AND PATHWAYS FOR MACROPHAGE MODULATION” (Massachusetts Institute of Technology, priority 2020, published 2025)

How the values were obtained:
[1] = system: bone marrow derived macrophages (BMDMs); assay: Seahorse ECAR (glycolysis) in BMDMs; assay type: cell-based, mouse; conditions: Pkm−/− BMDMs, 50 nM
Experimental: FIGS. 21A-21I show DPI stimulates glycolysis through GPR3 and β-arrestin2. FIGS. 21A-21B show DPI-stimulated glycolysis is independent of the NOX activity. […] The mean fluorescence intensity (MFI) of 2-NBDG in cells was measured by flow cytometry and normalized to DMSO controls of wildtype BMDMs. Data are presented as the mean±sd (n=3). […] ImKCs were transfected with siRNA specific for Gpr3 or a scramble siRNA as control. […] Data are presented as the mean±sd (n=4). […] Data are presented as the mean±sd (n=12). […] Abbr2^−/− ImKC were constructed by CRISPR-Cas9-mediated gene editing. […] Data are presented as the mean±sd (n=4). […]
Specific parameters for glycolytic capacity and glycolytic reserve were calculated and summarized based on two independent experiments. […]
FIGS. 29A-29B show comparison of DPI's effect on glycolysis in wild-type and Pkm^−/− BMDMs. […] ImKCs were treated with DMSO or DPI alone (500 nM) or DPI plus ERK1/2 inhibitor (SCH772984, […]) for 6 hrs and the enzymatic activities of PKM2 (c) and GAPDH (d) were measured by colorimetric assay kits (Biovision). […]
OCR and ECAR were measured in isolated tissues or cultured ImKCs using the Seahorse XFe Extracellular Flux Analyzer (Agilent). […] Glucose levels were determined using a glucose (GO) assay kit (Sigma). […] Lactate levels were determined using a lactate assay kit (Eton Bioscience). […]

[2] = system: luciferase-expressing human B lymphoma cells (GMB); assay: Human B lymphoma (GMB-luc) model in NSG mice; assay type: in vivo, mouse
Experimental: NSG mice were grafted with 1×10^7 GMB-luc cells and dosed twice at 14 and 21 days later with 0.5 mg/kg Rituximab (Ritu) and/or 300 mg/kg thiostrepton (Thio). Tumor burden was monitored (FIG. 18A) and quantified (FIG. 18B) by imaging the luciferase activity in vivo (n=5˜6 mice per group). Data are shown as mean±s.e.m. At day 28 post tumor engraftment, bone marrow cells were analyzed by flow cytometry (FIG. 18C). Shown are representative F4/80 versus CD11b staining profiles gating on CD45^+ cells (top panel), Ly6C versus Ly6G staining profiles gating on F4/80^+CD11b^+ cells (bottom panel). MHCII histograms gating on macrophages from FIG. 18C. […] Data shown are mean±s.d. * P<0.05, ** P<0.01 and *** P<0.001, by T-test.
For the melanoma model, an inoculum of 1×10^6 B16F10 tumor cells was injected subcutaneously on the flank of 8- to 10-week-old male B6 mice in […] sterile PBS. Six days following tumor inoculation, mice were randomized into 4 treatment groups including control (PBS or DMSO), tumor-targeting antibody TA99, compound, compound plus TA99. TA99 was administered at […] per dose intraperitoneally (I.P.). The compound was administrated at the indicated dosage by either I.P. or paratumor injection subcutaneously (S.C.). All mice were dosed at day 6 and day 12 post tumor inoculation for a total of 2 treatments. Tumor size was measured as an area (longest dimension×perpendicular dimension) at day 6, day 12 and day 18 post tumor inoculation. Mice were euthanized for analysis at day 18 post tumor inoculation. For the lymphoma model, 1×10^7 GMB cells were injected through tail intravenously in 100 μL sterile PBS into 10- to 12-week-old male NSG mice. Mice were treated two weeks post tumor cell engraftment. Tumor-targeting antibody Rituxumab (InvivoGen) was administered at 10 mg/kg intraperitoneally. The compound was administrated I.P. at the indicated dosage. All mice were dosed at week 2 and week 3 post tumor injection for a total of 2 treatments. […]

| Compound | glycolysis, glycolytic capacity and glucose consumption [1] | tumor burden in the bone marrow ([2]; alone, 300 mg/kg, luciferase imaging) | tumor burden in the bone marrow, with rituximab ([2]; together with rituximab, luciferase imaging) | F4/80+CD11b+ macrophages with higher MHCII in bone marrow ([2]; vs vehicle or rituximab) |
| --- | --- | --- | --- | --- |
| c1ccc2c(c1)[I+]c1ccccc1-2 [Diphenyleneiodonium chloride] | did not stimulate any increase | – | – | – |
| C=C(NC(=O)C(=C)NC(=O)c1csc(C2=N[C@@H]3c4csc(n4)[C@H]4NC(=O)c5csc(n5)[C@H]([C@](C)(O)[C@@H](C)O)NC(=O)[C@H]5CSC(=N5)/C(=C/C)NC(=O)[C@H]([C@@H](C)O)NC(=O)c5csc(n5)[C@]3(CC2)NC(=O)[C@H](C)NC(=O)C(=C)NC(=O)[C@H](C)NC(=O)[C@H]([C@@H](C)CC)N[C@@H]2C=Cc3c([C@H](C)O)cc(nc3[C@H]2O)C(=O)O[C@@H]4C)n1)C(N)=O [Thiostrepton] | – | significantly reduced | significantly reduced | higher percentages |
